The structures appear in SMILES notation.

This assay has as its system KCL-22 cells. Briefly: Soft agar colony formation assay with imatinib. Format: cell-based. The following applies: 2.5 μM imatinib, one million KCL-22 cells per well, 3 weeks. The procedure:
One million KCL-22 cells were seeded per well in triplicate and incubated for 3 weeks. Plates were then stained with 0.005% Crystal Violet for 1 hour, and colonies were scored by microscope.

Turning to `Cc1ccc(NC(=O)c2ccc(CN3CCN(C)CC3)cc2)cc1Nc1nccc(-c2cccnc2)n1` [imatinib], the “T315I mutation rate on soft agar, μ” value is reported as 2.40 × 10^−4 T315I mutations incurred per BCR-ABL fusion gene. The “T315I mutation rate on soft agar, μ” value (listed as Imatinib) was 2.40 × 10^−4 ± 2.89 × 10^−5 T315I mutations incurred per BCR-ABL fusion gene.
